Tests used:
human LXRβ = molecular target: T1, human LXRβ (Homo sapiens, UniProt P55055); assay: Ligand-binding test procedure for human LXRβ (3H T0901317 tracer, flash plates); details: biotinylated hLXRβ from E. coli extract; tracer 3H T0901317
T1 construct: biotin (biotinylated); made in house; host or cells: E. coli (crude extract)
T1 sequence (P55055 1-460): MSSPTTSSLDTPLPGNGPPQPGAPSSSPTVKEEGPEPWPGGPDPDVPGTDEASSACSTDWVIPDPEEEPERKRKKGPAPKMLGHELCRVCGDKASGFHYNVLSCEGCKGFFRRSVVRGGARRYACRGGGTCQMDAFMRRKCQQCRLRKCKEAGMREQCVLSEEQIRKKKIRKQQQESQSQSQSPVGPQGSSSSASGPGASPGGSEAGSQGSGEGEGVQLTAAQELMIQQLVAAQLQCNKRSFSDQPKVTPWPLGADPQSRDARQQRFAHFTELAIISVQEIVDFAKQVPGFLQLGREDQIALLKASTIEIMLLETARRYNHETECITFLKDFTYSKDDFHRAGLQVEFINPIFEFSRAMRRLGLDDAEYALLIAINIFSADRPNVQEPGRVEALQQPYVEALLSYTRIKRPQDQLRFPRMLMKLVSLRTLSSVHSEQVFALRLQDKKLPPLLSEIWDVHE
Procedure, shortened: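 Biotinylated hLXRβ from E. coli extract was captured on streptavidin flash plates (Bmax ~4000 cpm) at 4 °C overnight. Test ligand dilutions were mixed with 5 nM [3H]T0901317 tracer solution and incubated on the plates overnight at 4 °C; bound radioactivity was counted after washing.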

human LXRα = molecular target: T2, human LXRα (Homo sapiens, UniProt Q13133); assay: Ligand-binding test procedure for human LXRα (3H T0901317 tracer, flash plates); details: biotinylated hLXRα from E. coli extract; tracer 3H T0901317
T2 construct: biotin (biotinylated); made in house; host or cells: E. coli (crude extract)
T2 sequence (Q13133 1-447): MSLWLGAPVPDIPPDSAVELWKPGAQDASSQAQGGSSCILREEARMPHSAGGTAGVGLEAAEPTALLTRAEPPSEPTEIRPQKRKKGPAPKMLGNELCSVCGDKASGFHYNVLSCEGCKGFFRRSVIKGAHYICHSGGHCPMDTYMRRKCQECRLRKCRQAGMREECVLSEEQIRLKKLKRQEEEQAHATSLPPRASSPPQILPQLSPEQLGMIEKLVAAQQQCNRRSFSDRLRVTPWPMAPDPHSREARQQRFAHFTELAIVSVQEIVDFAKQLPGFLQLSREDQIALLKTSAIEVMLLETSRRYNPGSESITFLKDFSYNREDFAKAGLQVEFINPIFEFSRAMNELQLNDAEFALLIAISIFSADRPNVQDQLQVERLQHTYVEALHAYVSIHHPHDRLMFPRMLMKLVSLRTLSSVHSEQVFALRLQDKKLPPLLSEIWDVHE
Procedure, shortened: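 Biotinylated hLXRα from E. coli extract (50 mM Tris) captured on streptavidin flash plates overnight at 4 °C. Compound dilution series mixed with 5 nM [3H]T0901317 (concentration before mixing), incubated overnight at 4 °C; wells aspirated, washed and remaining radioactivity counted.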

ABCA1 gene = assay: Quantitative analysis of ABCA1 gene regulation in THP-1 cells (real-time PCR); assay type: cell-based, human; details: Gene regulation by LXR (Human), differentiated THP-1 cells, 18 hrs; for EC50: ABCA1 mRNA, read-out: EC50 ABCA1; for Emax: LXR agonist reference at 1.0 uM as positive control, read-out: Agonism ABCA1
Procedure: III. Quantitative Analysis of ABCA1 Gene Regulation in THP-1 Cells. The compounds of formula (I) effect on the regulation of the ABCA1 gene was evaluated using the following procedure. Materials and Methods Cell culture: The THP-1 monocytic cell line (ATCC #TIB-202) was obtained from American Type Culture Collection (Manassas, Va.) and cultured in RPMI 1640 medium (Gibco, Carlsbad, Calif.) containing 10% FBS, 2 mM L-glutamine, and 55 uM beta-Mercaptoethanol (BME). […] Louis, Mo.) for three days to induce differentiation into adherent macrophages. Differentiated THP-1 cells were treated with test compounds or ligands dissolved in DMSO (Sigma, D-8779) in culture medium lacking phorbal ester. […] Dose response effects were measured in duplicate, in the range of 0.001 to 30 micromolar concentrations and treated cells were incubated for an additional 18 hrs prior to RNA isolation. Unstimulated cells treated with vehicle were included as negative controls on each plate. […] L., J. Med. Chem. (2000), 45:1963-1966.). Results of antagonist analysis are expressed as % antagonism and IC50 (in μM). RNA isolation and quantitation: Total cellular RNA was isolated from treated cells cultured in 96-well plates using PrepStation 6100 (Applied Biosystems, Foster City, Calif.), according to the manufacturer's recommendations. RNA was resuspended in ribonuclease-free water and stored at -70° C. prior to analysis. RNA concentrations were quantitated with RiboGreen test procedure, #R-11490 (Molecular Probes, Eugene, Oreg.). Gene expression analysis: Gene-specific mRNA quantitation was performed by real-time PCR with the Perkin Elmer Corp. chemistry on an ABI Prism 7700 Sequence detection system (Applied Biosystems, Foster City, Calif.) according to the manufacturer's instructions. Samples (50-100 ng) of total RNA were assayed in duplicate or triplicate in 50 ul reactions using one-step RT-PCR and the standard curve method to estimate specific mRNA concentrations. Sequences of gene-specific primer and probe sets were designed with Primer Express Software (Applied Biosystems, Foster City, Calif.). […] Relative levels of ABCA1 mRNA are normalized using GAPDH mRNA or 18S rRNA probe/primer sets purchased commercially (Applied Biosystems, Foster City, Calif.). Statistics: Mean, standard deviation and statistical significance of duplicate evaluations of RNA samples were assessed using ANOVA, one-way analysis of variance using SAS analysis. Reagents: -GAPDH Probe and Primers-Taqman GAPDH Control Reagents 402869 or 4310884E 18S Ribosomal RNA-Taqman 18S Control Reagents 4308329 […] Qiagen Quantitect probe RT-PCR 204443.

Row | Compound | IC50 (human LXRβ) | IC50 (human LXRα) | EC50 (ABCA1 gene) | Emax (ABCA1 gene)
1 | CC(C)(C)c1nc2c(C(F)(F)F)cccn2c1-c1cccc(Oc2cccc(S(=O)(=O)CCCO)c2)c1 [Example 78, 3-[(3-{3-[2-tert-butyl-8-(trifluoromethyl)imidazo[1,2-a]pyridin-3-yl]phenoxy}phenyl)sulfonyl]propan-1-ol] | 9 nM | 167 nM | 1460 nM | 92%
2 | CCS(=O)(=O)c1cccc(Oc2cccc(-c3c(C(C)(C)C)nc4c(C#N)cccn34)c2)c1 [Example 79, 2-tert-butyl-3-{3-[3-(ethylsulfonyl)phenoxy]phenyl}imidazo[1,2-a]pyridine-8-carbonitrile] | 23.7 nM | 745 nM | 285 nM | 60%
3 | CC(C)c1nc2c(C(F)(F)F)cccn2c1-c1ccc(-c2ccc(S(=O)(=O)C(C)C)cc2)cc1 [Example 91, 2-isopropyl-3-(4′-(isopropylsulfonyl)biphenyl-4-yl)-8-(trifluoromethyl)imidazo[1,2-a]pyridine] | > 1000 nM | > 1000 nM | 2780 nM | 33%
4 | CCS(=O)(=O)c1cccc(Oc2ccc(-c3c(C(C)C)nc4c(C(F)(F)F)cccn34)cc2)c1 [Example 120, 3-{4-[3-(ethylsulfonyl)phenoxy]phenyl}-2-(1-methylethyl)-8-(trifluoromethyl)imidazo[1,2-a]pyridine] | 117 nM | > 1000 nM | 590 nM | 53%
5 | COc1ccccc1-c1nc2c(C(F)(F)F)cccn2c1-c1ccc(Oc2cccc(S(C)(=O)=O)c2)cc1 [Example 126, 2-(2-methoxyphenyl)-3-{4-[3-(methylsulfonyl)phenoxy]phenyl}-8-(trifluoromethyl)imidazo[1,2-a]pyridine] | 14 nM | 290 nM | 25 nM | 30%
6 | CCCCOCc1nc2c(C(F)(F)F)cccn2c1-c1ccc(Oc2cccc(S(C)(=O)=O)c2)cc1 [Example 128, 2-(butoxymethyl)-3-{4-[3-(methylsulfonyl)phenoxy]phenyl}-8-(trifluoromethyl)imidazo[1,2-a]pyridine] | 28 nM | 430 nM | 40 nM | 76%
7 | CS(=O)(=O)c1cccc(Oc2cccc(-c3c(Cn4ccnc4)nc4c(C(F)(F)F)cccn34)c2)c1 [Example 129, 2-(1H-imidazol-1-ylmethyl)-3-{3-[3-(methylsulfonyl)phenoxy]phenyl}-8-(trifluoromethyl)imidazo[1,2-a]pyridine] | 30 nM | 370 nM | 135 nM | 103%

Now from value to compound, other results behind:

Row | IC50 (human LXRβ) | IC50 (human LXRα) | EC50 (ABCA1 gene) | Compound | Emax (ABCA1 gene)
8 | 37.2 nM | 2430 nM | 1940 nM | CCc1nc2c(C#N)cccn2c1-c1cccc(Oc2cccc(S(=O)(=O)C(C)C)c2)c1 [Example 71, 2-ethyl-3-{3-[3-(isopropylsulfonyl)phenoxy]phenyl}imidazo[1,2-a]pyridine-8-carbonitrile] | 96%
9 | 36.5 nM | 1880 nM | 2040 nM | CCS(=O)(=O)c1cccc(Oc2cccc(-c3c(C(C)C)nc4c(C#N)cccn34)c2)c1 [Example 73, 3-{3-[3-(ethylsulfonyl)phenoxy]phenyl}-2-isopropylimidazo[1,2-a]pyridine-8-carbonitrile] | 82%
10 | 24 nM | 1260 nM | 560 nM | CC(C)c1nc2c(C#N)cccn2c1-c1cccc(Oc2cccc(S(=O)(=O)C(C)C)c2)c1 [Example 74, 2-isopropyl-3-{3-[3-(isopropylsulfonyl)phenoxy]phenyl}imidazo[1,2-a]pyridine-8-carbonitrile] | 97%
11 | 11.5 nM | 309 nM | 290 nM | CC(C)c1nc2c(C#N)cccn2c1-c1cc(Oc2cccc(S(C)(=O)=O)c2)ccc1Cl [Example 82, 3-{2-chloro-5-[3-(methylsulfonyl)phenoxy]phenyl}-2-isopropylimidazo[1,2-a]pyridine-8-carbonitrile] | 70%
12 | 6.8 nM | 218 nM | 260 nM | CCS(=O)(=O)c1cccc(Oc2ccc(Cl)c(-c3c(C(C)C)nc4c(C#N)cccn34)c2)c1 [Example 83, 3-{2-chloro-5-[3-(ethylsulfonyl)phenoxy]phenyl}-2-isopropylimidazo[1,2-a]pyridine-8-carbonitrile] | 76%
13 | 8.5 nM | 276 nM | 375 nM | CC(C)c1nc2c(C#N)cccn2c1-c1cc(Oc2cccc(S(=O)(=O)C(C)C)c2)ccc1Cl [Example 84, 3-{2-chloro-5-[3-(isopropylsulfonyl)phenoxy]phenyl}-2-isopropylimidazo[1,2-a]pyridine-8-carbonitrile] | 70%
14 | 179 nM | > 1000 nM | 620 nM | CC(C)c1nc2c(C(F)(F)F)cccn2c1-c1ccc(Oc2cccc(S(C)(=O)=O)c2)cc1 [Example 119, 2-(1-methylethyl)-3-{4-[3-(methylsulfonyl)phenoxy]phenyl}-8-(trifluoromethyl)imidazo[1,2-a]pyridine] | 59%
